Assays:
c-jun = c-jun mRNA (semi-quantitative PCR) and protein (Western blot) in A2780-CP70 cells; assay type: cell-based, human
Experimental: Controls included α-tubulin and histone deacetylase 3. C-jun antibody recognizes non-phosphorylated c-jun protein.
c-jun and c-fos mRNA expression was examined in A2780-CP70 cells transfected with anti-GLI1 shRNA construct at 6 hr, 24 hr, 48 hr, and 72 hr post-transfection using semi-quantative PCR analysis (FIG. 41).
A2780-CP70 cells were transfected with an IC50 dose of anti-Gli1 shRNA (treated) construct or vector (control). Total intracellular c-jun mRNA and c-jun protein was measured at 6 hr, 24 hr, 48 hr, and 72 hr.
C-jun mRNA and protein levels were further examined in cisplatin-resistant A2780-CP70 cells treated with an IC50 dose of anti-Gli1 shRNA. FIG. 78 depicts mRNA levels (panel A) and protein levels (panel B) in cells at 6, 24, 48, and 72 hours post-treatment.

Shh, Ihh = assay: Shh and Ihh protein levels in A2780-CP70 cells; assay type: cell-based, human; conditions: cyclopamine-treated
Experimental: SHH and IHH protein levels were assessed in cyclopamine-treated A2780-CP70 cells by Western blot analysis. Referring to FIG. 28, SHH protein (51 kDa) was detected in cytoplasmic fractions, but not nuclear fractions of treated cells at 0 hr. […] At 48 hr, SHH protein levels were prominent in cytoplasmic and nuclear fractions, and remained prominent through 72 hr. Referring to FIG. 29, IHH protein (45 kDa) was detected in cytoplasmic and nuclear fractions of treated cells at 0 hr. At 6 hr, IHH protein levels were more prominent in nuclear fractions than in cytoplasmic fractions. At 24 hr, IHH protein levels were low in both nuclear and cytoplasmic fractions. However, at 48 hr IHH protein levels increased in nuclear fractions through to 72 hr. IHH was only weakly present in the cytoplasmic fractions between 48-72 hr. […] After 24 hr SHH and IHH protein levels were similar in nuclear and cytoplasmic fractions. SHH and IHH protein levels rebounded by 48 hr and 72 hr.
The effects of an IC50 dose of anti-Gli1 shRNA on cisplatin-sensitive A2780 cells and cisplatin-resistant A2780-CP70 cells were assessed. Cisplatin-sensitive A2780 cells and cisplatin-resisitant A2780-CP70 cells were treated with 2.0 μg/ml shRNA per 200 microliter well anti-Gli1 shRNA. Protein levels of Gli1, Gli2, c-jun, Shh, Ihh, and GAPDH (control) were measured. […]

OPN = assay: Secreted OPN protein, immunoblot of conditioned medium, MDA-MB-435; assay type: cell-based, human; conditions: 10 μM and 20 μM cyclopamine
Experimental: Stable vector only and non-targeting (scrambled control) transfectants were also generated. Stable transfectants were selected on medium supplemented with 500 μg/ml Geneticin (Invitrogen). The four GLI1-knocked down clones chosen were based on the extent of GLI1 knockdown and were termed KO1, KO2, KO3, and KO4. The expression of OPN was restored in the KO1 cells by transfecting with pcDNA3.1-OPN. A corresponding vector-only transfectant was also generated. Transfectants were selected on medium containing Geneticin (500 μg/ml) and hygromycin (750 μg/ml). Serum-free conditioned medium harvested from approximately 3.0×10^6 cells after 24 hr was assayed for OPN by immunoblotting.
Western Blotting Analysis—Whole cell lysates were collected in Nonidet P-40 buffer (150 mM NaCl, 50 mM Tris, 1% Nonidet P-40). Isolation of cytosolic and nuclear fractions was done as previously reported (15). Total protein (30 μg) was resolved by SDS-PAGE gel and transferred to polyvinylidene difluoride membranes. […] Secreted OPN was assessed by loading an equal quantity of protein from the serum-free conditioned medium. […]

OPN promoter = OPN promoter luciferase reporter assay in melanoma cell lines; assay type: cell-based, human; conditions: MDA-MB-435, MCC012A, MCC012F
Experimental: Empty pGL3 vector was used as control. Hedgehog ligands were added to the well 6 h prior to harvesting the cells (approximately 33 hr of initiation of transfection) for assay. Readings were normalized to total protein content. Each parameter was studied in triplicate and the experiment repeated at least 3 times. The data are represented as percent luciferase activity, which was derived as a percent of the relative light units in treated groups compared with the untreated groups.

RAW264.7 cells = assay: Osteoclast resorption activity, OAAS plates; assay type: cell-based, murine; conditions: DM supplemented with SHH (100 nM) or OPN (100 ng/ml)
Experimental: Osteoclast differentiation and activity assays—Tartarate-resistant acid phosphatase (TRAP) assay was conducted for RAW 264.7 following the manufacturer's protocol (Sigma, St. Louis, Mo.). This assay was indicative of the extent of differentiation. OAAS plates (Osteogenic Core Technologies, Choongnam, Republic of Korea) were utilized to measure osteoclastic activity. RAW 264.7 cells (25×103) were inoculated in 48-well plates. Cells were treated with serum-free conditioned media from breast cancer cells or 100 nM SHH or 100 ng/ml OPN on the following day. Media was changed every two days and the experiments were terminated either on day 6 (day 7 for knockdown experiments, with transfections being done on the sixth day). At the completion, cells were detached with 5% sodium hypochlorite and the wells were observed under a Nikon Eclipse TS 100 microscope at 10× magnification. […] The percentage of area resorbed was calculated using the NIS-Elements BR. 3.1 software.

| Molecule | c-jun mRNA increase (c-jun; 70 μM cyclopamine, 6 hr vs 0 hr) [fold] | c-jun mRNA increase (peak) (c-jun; 70 μM cyclopamine, 24 hr vs 0 hr) [fold] | time of peak c-jun level (c-jun; A2780-CP70, IC50 dose of agent) | SHH and IHH protein levels (Shh, Ihh) | OPN protein in the secretome (OPN) | OPN promoter activity (OPN promoter) | osteoclast activity (area resorbed) (RAW264.7 cells) |
| --- | --- | --- | --- | --- | --- | --- | --- |
| CC1=C2C[C@H]3[C@@H](CC=C4C[C@@H](O)CC[C@@]43C)[C@@H]2CC[C@]12O[C@@H]1C[C@H](C)CN[C@H]1[C@H]2C [cyclopamine] | 3 | 13 | about 48 hours | reduced at 24 hr | decreased levels of OPN protein | – | – |
| SHH: recombinant Sonic hedgehog ligand (R & D Systems) | – | – | – | – | – | up-regulated the promoter activity of OPN | notably enhances (p<0.001) osteoclast activity |

From patent publication US9464291B2, “Methods and compositions for the treatment of cancer” (University of South Alabama, priority 2012, dated 2016)
